What was measured:
[1] = system: A549; assay: Cytotoxicity assay (propidium iodide), A549; type: cell-based; settings: Homo sapiens; A549 (C1a, lung); 48 hours
Procedure: (§4) Cells from cell lines as mentioned in the table given below were seeded at a density of 3000 cells/well in a white opaque 96-well plate. Following incubation at 37° C./5% CO2 for a period of 18-24 hours, the cells were treated with various concentrations (stock solution was prepared in DMSO and subsequent dilutions were made in media as per ATCC guidelines) of the representative compounds of present invention (refer table 3) for a period of 48 hours. At the end of treatment, the spent culture medium was discarded, the cells were washed with 1×PBS and 200 μl of 7 μg/ml propidium iodide was added to each well. The plates were frozen at −70° C. for at least 24 hours. For analysis, the plates were brought to RT, allowed to thaw and were read in PolarStar fluorimeter with the fluorescence setting. The percentage of viable cells in the non treated set of wells was considered to be 100 and the percentage viability following treatment was calculated accordingly. IC50 values were calculated from graphs plotted using these percentages.

[2] = system: H460; assay: Cytotoxicity assay (propidium iodide), H460; type: cell-based; settings: Homo sapiens, NCI-H460; H460 (C1b, lung); 48 hours
Procedure: as §4

[3] = system: A2780; assay: Cytotoxicity assay (propidium iodide), A2780; type: cell-based; settings: Homo sapiens; A2780 (C3a, ovarian); 48 hours
Procedure: as §4

[4] = system: OVCAR 3; assay: Cytotoxicity assay (propidium iodide), OVCAR 3; type: cell-based; settings: Homo sapiens; OVCAR 3 (C3c, ovarian); 48 hours
Procedure: as §4

[5] = system: HCT116; assay: Cytotoxicity assay (propidium iodide), HCT116; type: cell-based; settings: Homo sapiens, HCT-116; HCT116 (C4b, colon); 48 hours
Procedure: as §4

[6] = system: IL-6; assay: Human monocyte assay, LPS-stimulated IL-6; type: cell-based; settings: Monocyte; human monocytes, 1 μg/ml LPS, 5 hours
Method in brief: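 Adherent human PBMC-derived monocytes (2×10^4/well) were cultured 48 h, preincubated 30 min with compound or 0.5% DMSO, then stimulated with 1 μg/ml E. coli LPS for 5 h at 37° C. TNF-α and IL-6 in supernatants were measured by ELISA.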

[7] = system: PC3; assay: Cytotoxicity assay (propidium iodide), PC3; settings: Homo sapiens, PC-3, 48 h, read-out: IC50 cytotoxicity
Procedure: as §4

[8] = system: STAT3; assay: STAT3 bioassay (Hela Stat3-luc, luciferase); type: cell-based; settings: Homo sapiens, Oncostatin M induction
Procedure: Cells were seeded (Hela Stat3-luc, ATCC P/N 30-2002) in a white 96 well plate (Nunc cat.no.136101) at a density of 20,000cells/well in 179 μl volume per well (DMEM from Sigma containing 10% FCS). The plate was incubated for 24 hours at 37° C./5% CO2. The cells (wells in triplicates) were then treated with 1 μl/well of 200× stock of the desired compound concentration prepared in 100% DMSO. Curcumin was used as a standard or positive control, added 10 μg/ml in triplicate. DMSO was used as medium control (1 μl/well added in triplicates). The plate was incubated at 37° C./5% CO2 for 1 hour. 20 μl/well Oncostatin M (Oncostatin M, Human, Recombinant, E. coli, Cat.No. 496260, 10 μg from Calbiochem) was added to treated wells, induction control (in triplicate) (1000 ng/ml stock prepared in serum free medium to get final concentration 100 ng/ml). The plate was then incubated for 7-8 hours at 37° C./5% CO2 for induction. A typical assay would consist of triplicate of medium control, triplicate of induction control, triplicate of positive/standard control and test compounds at desired concentration in triplicates. For termination Luciferase assay protocol was followed where the culture medium was removed from all the wells.
200 μl well of PBS was added to remove traces of medium and compound. The PBS was discarded. 40 μl/well of 1× lysis buffer was added to all the wells. The plate was incubated at RT for 20 minutes with intermittent shaking. 100 μl/well of LAB reagent was added to all the wells in dark. {LAB reagent for 1 plate=8 ml Luciferase assay buffer (LAB)+1 ml Coenzyme A (Sigma cat no. C3019) (2.1 mg/ml stock in LAB)+530 μL of ATP (Sigma cat.no.A2383) (5.85 mg/ml stock in LAB)+1 ml luciferin reagent (Promega cat no.245355) (2 mg/ml stock in LAB, protect from light)}.
The luminescence was immediately read on polar star. The values were expressed as percentage inhibition, in terms of treated values to that STAT3 (induction control). IC50 values were calculated from graphs using these percentages.

[9] = system: TNF-α; assay: Human monocyte assay, LPS-stimulated TNF-α; type: cell-based; settings: human monocytes, 1 μg/ml LPS, 5 hours
Procedure: The assay was designed as in the reference, Physiol.
Peripheral blood mononuclear cells (hPBMC) were harvested from human blood and suspended in RPMI 1640 culture medium containing 10% FCS, 100 U/mL penicillin and […] streptomycin (assay medium). Monocytes in the hPBMCs were counted using a Coulter Counter following which the cells were resuspended at 2×10^5 monocytes/mL. A cell suspension containing 2×10^4 monocytes was aliquoted per well of a 96-well plate. Subsequently, the hPBMCs were incubated for 4-5 hours at 37° C., 5% CO2 (During the incubation, the monocytes adhered to the bottom of 96-well plastic culture plate). Following the incubation, the non-adherent lymphocytes were washed with assay medium and the adherent monocytes re-fed with assay medium. After a 48-hour incubation period (37° C., 5% CO2), monocytes were pretreated with various concentrations of representative compounds of present invention (refer to table 6 and 7) (prepared in DMSO) or vehicle (0.5% DMSO) for 30 minutes and stimulated with 1 μg/ml LPS (Escherchia coli 0111:B4, Sigma Chemical Co., St. Louis, Mo.). The incubation was continued for 5 hours at 37° C., 5% CO2. Supernatants were harvested, assayed for IL-6 and TNF-α by ELISA as described by the manufacturer (BD Biosciences, USA). Dexamethasone (10 μM) was used as standard for this assay. […] Biological results for both IL-6 and TNFα are indicated in Table 6 and Table 7 respectively.

[10] = system: IL-6; assay: Synovial tissue assay, IL-6; type: cell-based; settings: Homo sapiens; synovial tissue cells from rheumatoid arthritis patients, 16 hours
Procedure: (§1) The assay was designed as in the reference, Lancet, 2(8657), 244-7, Jul.
(§2) Stock Solution: Compounds of the present invention were dissolved in DMSO to obtain a stock solution of 20 mM.
(§3) Synovial tissue was obtained from rheumatoid arthritis patients undergoing knee replacement surgery. The tissue was minced into small pieces and digested in RPMI medium containing 100 U/ml penicillin-G, 100 μg/ml streptomycin, 50 ng/ml amphotericin B (GIBCO; USA), 1.33 mg/ml collagenase Type I (Worthington Biochemical Corporation, New Jersey), 0.5 μg/ml DNAse Type I (Sigma Aldrich; St. Louis, Mo.) and 8.33 U/ml heparin (Biological E. Limited, India) for 3 hours at 37° C., 5% CO2. The digested tissue was filtered through a membrane (mesh size 70 micron; Sigma Aldrich). Subsequently, the cells were washed 3 times and resuspended in complete medium (RPMI supplemented with 5% FBS and 5% human serum-AB+) at a concentration of 1×10^6 cells/ml. All cell washes in this assay were performed using Rosewall Park Memorial Institute (RPMI)-1640 medium (JRH; Australia). For the experiment, 100 μl of cell suspension was added to the wells of a 96-well culture plate. Following cell plating, 100 μl of the culture medium and 1 μl of various concentrations (0.01, 0.03, 0.1, 0.3, 1, 3, 10, 30 and 100 μM) of the compounds of present invention dissolved in DMSO were added to the cells. The final concentration of DMSO was adjusted to 0.5%. For experimental purposes, 1 μl of […] concentrated solution of the compounds of present invention were dissolved in 200 μl cell suspension to achieve a final concentration of 0.01, 0.03, 0.1, 0.3, 1, 3, 10, 30 and 100 μM. The vehicle (0.5% DMSO) was used as control. 10 μM dexamethasone (Sigma Aldrich) or 1 μM 7-hydroxyfluorinide (7HF) were used as standards for the experiments. The plates were incubated for 16 hours at 37° C., 5% CO2. Subsequently, the supernatants were harvested and stored at −70° C. The amounts of TNF-α, IL-6 and interleukin-8 (IL-8) in the supernatants were assayed using OptiEIA ELISA sets, (BD BioSciences Pharmingen). The protocol followed was as per manufacturers instructions. […] The cytotoxicity of test compounds in synovial cells was assessed by MTS assay. Absorbance was measured at 490 nm. Percent cytotoxicity was calculated by the equation: % Cytotoxicity=(A−B)/A×100 where, A is the absorbance of cells treated with DMSO alone and B is the absorbance of cells treated with the test article.

[11] = system: TNF-α; assay: Synovial tissue assay, TNF-α; type: cell-based; settings: Homo sapiens; synovial tissue cells from rheumatoid arthritis patients, 16 hours
Procedure: as §1, §2, §3

[12] = system: IL-8; assay: Synovial tissue assay, IL-8; type: cell-based; settings: Homo sapiens; synovial tissue cells from rheumatoid arthritis patients, 16 hours
Procedure: as §1, §2, §3

[13] = biological target: T1, PI3Kα kinase (Homo sapiens, UniProt P42336); assay: Kinase assay (PI3Kα); type: biochemical; settings: read-out: IC50 (μM) for PI3K inhibition
T1 construct: purchased Millipore, USA
Procedure: The kinase reaction was carried out in a 25 μL volume in a 1.5 mL microcentrifuge tube. The reaction mixture consisted of kinase buffer (10 mM Hepes, pH 7.5, 50 mM MgCl2), 20 ng PI3Kα kinase (Millipore, USA), 12.5 μg phosphotidylinositol (PI), 10 μM ATP and 1 μCi ^32γ P […]. […] The reactions were incubated at 30° C. for 20 minutes and were terminated by adding 1:1 mixture of MeOH and CHCl3. The tube contents were mixed on a vortex mixer and centrifuged at 10000 rpm for 2 minutes. 10 μL of the organic (lower) phase was spotted on to a TLC plate (silica, mobile phase: n-propanol and 2 M glacial acetic acid in 65:35 ratio). The plates were dried and exposed to an X-ray film. The bands appearing as a result of ^32γ P incorporation in PI were quantitated using the Quantityl)ne (BioRad, USA) densitometry program. PI-103 (Calbiochem, USA) was used as a standard.

T1 sequence (P42336 whole entry): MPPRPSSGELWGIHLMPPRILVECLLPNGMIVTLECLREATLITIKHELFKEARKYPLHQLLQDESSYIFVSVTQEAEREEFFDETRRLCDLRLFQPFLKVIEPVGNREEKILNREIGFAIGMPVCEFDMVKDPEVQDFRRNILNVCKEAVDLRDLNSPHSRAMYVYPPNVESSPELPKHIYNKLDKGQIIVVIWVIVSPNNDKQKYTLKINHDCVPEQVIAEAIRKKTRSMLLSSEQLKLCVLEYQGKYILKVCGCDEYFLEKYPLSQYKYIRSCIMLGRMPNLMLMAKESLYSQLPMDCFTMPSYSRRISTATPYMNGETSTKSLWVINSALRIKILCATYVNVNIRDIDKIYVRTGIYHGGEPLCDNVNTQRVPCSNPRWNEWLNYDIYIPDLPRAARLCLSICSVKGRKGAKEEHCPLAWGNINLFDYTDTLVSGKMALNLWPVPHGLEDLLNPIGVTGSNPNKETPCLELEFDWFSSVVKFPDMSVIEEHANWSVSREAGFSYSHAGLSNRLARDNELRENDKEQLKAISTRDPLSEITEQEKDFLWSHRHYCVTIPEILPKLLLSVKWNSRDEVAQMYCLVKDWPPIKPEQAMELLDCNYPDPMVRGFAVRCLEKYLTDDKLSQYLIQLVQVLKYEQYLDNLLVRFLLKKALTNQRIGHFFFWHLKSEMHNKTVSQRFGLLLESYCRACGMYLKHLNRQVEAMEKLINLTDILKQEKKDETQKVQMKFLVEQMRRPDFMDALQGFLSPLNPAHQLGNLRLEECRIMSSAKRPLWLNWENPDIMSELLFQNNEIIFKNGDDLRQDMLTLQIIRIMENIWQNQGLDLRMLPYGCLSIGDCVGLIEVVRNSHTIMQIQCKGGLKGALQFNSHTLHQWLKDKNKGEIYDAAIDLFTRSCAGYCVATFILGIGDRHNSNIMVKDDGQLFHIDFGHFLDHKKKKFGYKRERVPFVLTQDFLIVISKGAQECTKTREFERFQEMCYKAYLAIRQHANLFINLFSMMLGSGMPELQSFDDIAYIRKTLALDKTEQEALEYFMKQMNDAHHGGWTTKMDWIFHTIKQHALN
T1 sequence (P27986 whole entry partner): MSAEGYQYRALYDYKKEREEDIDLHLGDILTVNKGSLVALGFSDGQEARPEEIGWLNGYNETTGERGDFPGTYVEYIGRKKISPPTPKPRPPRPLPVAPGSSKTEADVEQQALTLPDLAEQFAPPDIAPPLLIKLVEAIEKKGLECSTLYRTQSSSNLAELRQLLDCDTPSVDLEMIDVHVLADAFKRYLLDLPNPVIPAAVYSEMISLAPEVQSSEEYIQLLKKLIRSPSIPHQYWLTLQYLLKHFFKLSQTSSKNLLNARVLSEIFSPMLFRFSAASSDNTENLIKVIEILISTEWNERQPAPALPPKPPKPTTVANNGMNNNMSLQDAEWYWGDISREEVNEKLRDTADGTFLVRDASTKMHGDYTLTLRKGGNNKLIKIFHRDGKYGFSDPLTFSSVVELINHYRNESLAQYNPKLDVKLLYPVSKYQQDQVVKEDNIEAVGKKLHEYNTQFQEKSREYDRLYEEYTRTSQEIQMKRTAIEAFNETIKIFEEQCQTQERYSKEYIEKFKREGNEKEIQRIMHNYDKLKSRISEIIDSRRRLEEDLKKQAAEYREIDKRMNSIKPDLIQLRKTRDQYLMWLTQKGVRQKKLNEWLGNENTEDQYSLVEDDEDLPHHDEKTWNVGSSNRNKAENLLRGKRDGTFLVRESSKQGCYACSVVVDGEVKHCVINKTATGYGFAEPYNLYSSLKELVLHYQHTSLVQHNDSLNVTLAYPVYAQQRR

Structure (SMILES) | IC50 [1] [nM] | IC50 [2] [nM] | IC50 [3] [nM] | IC50 [4] [nM] | IC50 [5] [nM] | IC50 [6] [µM] | IC50 [7] [nM] | IC50 [8] [nM] | IC50 [9] [nM] | IC50 [10] [µM] | IC50 [11] [µM] | IC50 [12] [µM] | IC50 [13] [µM]
Cc1ccc(S(=O)(=O)N(C)N=Cc2cnc3ccc(-c4cccnc4)cn23)cc1 [Example 3, N, 4-dimethyl-N′-((6-(pyridine-3-yl)imidazo[1,2-a]pyridine-3-yl)methylene) benzenesulfonohydrazide] | 10 to 5000 | 10 to 5000 | 10 to 5000 | 10 to 5000 | 10 to 5000 | ≥ 5 | 10 to 5000 |  |  |  |  |  | 
CN(N=Cc1cnc2ccc(-c3cccnc3)cn12)S(=O)(=O)c1ccccc1F [Example 4, 2-Fluoro-N-methyl-N′-((6-(pyridine-3-yl)imidazo[1,2-a]pyridine-3-yl)methylene)benzenesulfonohydrazide] |  |  |  |  |  | 0.001 to 5 |  | 100 to 5000 | 1 to 1000 | 0.01 to 0.3 | 0.01 to 0.3 | 0.3 to 3 | 
CN(/N=C/c1cnc2ccc(-c3cccnc3)cn12)S(=O)(=O)c1cccc(C#N)c1 [Example 10, (E)-3-cyano-N-methyl-N′-((6-(pyridin-3-yl)imidazo[1,2-a]pyridin-3-yl)methylene)benzenesulfonohydrazide] | 10 to 5000 | 10 to 5000 | 10 to 5000 | 10 to 5000 | 10 to 5000 | 0.001 to 5 | 10 to 5000 | 100 to 5000 | 1 to 1000 |  |  |  | 
COc1ccc(S(=O)(=O)N(C)N=Cc2cnc3ccc(-c4cccnc4)cn23)cc1 [Example 12, 4-Methoxy-N-methyl-N′-((6-(pyridine-3-yl)imidazo[1,2-a]pyridine-3-yl)methylene)benzenesulfonohydrazide] | 10 to 5000 | 10 to 5000 | 10 to 5000 | 10 to 5000 | 10 to 5000 |  | 10 to 5000 |  |  |  |  |  | 
CN(N=Cc1cnc2ccc(-c3cccnc3)cn12)S(=O)(=O)c1ccc(F)cc1F [Example 13, 2,4-Difluoro-N-methyl-N′-((6-(pyridine-3-yl)imidazo[1,2-a]pyridine-3-yl)methylene) benzenesulfonohydrazide] |  |  |  |  |  | 0.001 to 5 |  | 5000 to 10000 | 1 to 1000 | 0.01 to 0.3 | 0.01 to 0.3 | 0.3 to 3 | 
CN(N=Cc1cnc2ccc(-c3cccnc3)cn12)S(=O)(=O)c1c(F)cccc1F [Example 14, 2,6-Difluoro-N-methyl-N′-((6-(pyridine-3-yl)imidazo[1,2-a]pyridine-3-yl)methylene) benzenesulfonohydrazide] |  |  |  |  |  | 0.001 to 5 |  | 5000 to 10000 | 1 to 1000 | 0.01 to 0.3 | 0.01 to 0.3 | 0.3 to 3 | 0.01 to 0.5
Cc1ccc(F)c(S(=O)(=O)N(C)N=Cc2cnc3ccc(-c4cccnc4)cn23)c1 [Example 19, 2-Fluoro-N, 5-dimethyl-N′-((6-(pyridine-3-yl)imidazo[1,2-a]pyridine-3-yl)methylene) benzenesulfonohydrazide] |  |  |  |  |  | 0.001 to 5 |  |  | 1 to 1000 | 0.3 to 3 | 0.3 to 3 | 0.3 to 3 | 
CN(N=Cc1cnc2ccc(-c3cccnc3)cn12)S(=O)(=O)c1cccs1 [Example 29, N-methyl-N′-((6-(pyridine-3-yl)imidazo[1,2-a]pyridine-3-yl)methylene) thiophene-2-sulfonohydrazide] | 10 to 5000 | 10 to 5000 | 10 to 5000 | 10 to 5000 | 10 to 5000 |  | 10 to 5000 |  |  |  |  |  | 
Cc1ccc([N+](=O)[O-])cc1S(=O)(=O)N(C)N=Cc1cnc2ccc(-c3cnc4ccccc4c3)cn12 [Example 99, N, 2-Dimethyl-5-nitro-N′-((6-(quinolin-3-yl)imidazo[1,2-a]pyridine-3-yl)methylene)benzenesulfonohydrazide] | 10 to 5000 | 10 to 5000 | 10 to 5000 | 10 to 5000 | 10 to 5000 | 0.001 to 5 | 10 to 5000 |  |  |  |  |  | 
